The target of the test is T1, squalene synthase (Homo sapiens, UniProt P37268).
T1 construct: PREPARATION OF HUMAN HEPG2 CELL ENZYME; host or cells: HepG2 (human hepatoblastoma), sonicated cell extract
T1 sequence (P37268 1-417): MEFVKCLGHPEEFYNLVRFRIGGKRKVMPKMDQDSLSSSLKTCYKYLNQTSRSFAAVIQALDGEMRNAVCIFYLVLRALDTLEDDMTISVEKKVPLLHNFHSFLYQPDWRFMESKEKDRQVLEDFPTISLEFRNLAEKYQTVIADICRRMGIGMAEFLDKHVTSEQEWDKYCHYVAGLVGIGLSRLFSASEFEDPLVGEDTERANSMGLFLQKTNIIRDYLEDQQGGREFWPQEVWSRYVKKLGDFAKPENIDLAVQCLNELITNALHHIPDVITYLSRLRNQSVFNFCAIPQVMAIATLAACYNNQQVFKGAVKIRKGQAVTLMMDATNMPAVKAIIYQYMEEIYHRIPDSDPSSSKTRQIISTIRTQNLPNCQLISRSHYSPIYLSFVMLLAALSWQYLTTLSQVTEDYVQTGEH
Put plainly: Squalene synthase assay with human HepG2 cell enzyme. It is filed as biochemical. The settings on record: HepG2 enzyme preparation, 3 μM 3H-farnesyl pyrophosphate substrate, 30° C., 20 minutes; read-out: IC50 (squalene synthase inhibition). As for the experimental part:
The intrinsic squalene synthase inhibitory activity of the compounds of this invention was measured by the standard in vitro protocol described below:
PREPARATION OF HUMAN HEPG2 CELL ENZYME
1. Source: HEPG2 CELL LINE (Liver, hepatoblastoma, Human) ATCC No. HB 8065
Culture Medium: Minimum essential medium (MEM) with non-essential amino acids, sodium pyruvate, and 10% fetal bovine serum. The medium was changed twice weekly. […] The growth medium is prepared as listed below.
48 hrs. prior to harvest, switch cells grown in MEM with Fetal Calf serum to MEM with 10% delipidated serum.
Remove medium, wash with PBS, add fresh trypsin (0.25%)-EDTA (0.02%) with Hank's Balanced Salt solution, rinse and remove. Incubate flask at 37° C. until cells detach. Add 6 mL of MEM medium per flask to suspend cells and combine into centrifuge tube. […]
For each reaction, 55 μL of buffer mixture was taken with 5 μL of an inhibitor solution in DMSO and 10 μL of diluted enzyme (1 to 250 as described in the enzyme preparation; the final protein concentration of enzyme in the assay is 2 μg per mL.). […] 150 μL of heptane layer was then removed into a 96 deep well plate and mixed with 150 μL of scintillation fluid and the radioactivity was determined by liquid scintillation counting. […]
IC50 values were determined by plotting the log of the concentration of the test compound versus the percentage inhibition. […]

Our source for the IC50 values is patent US5362752A, “Chemical compounds” (Merck & Co., Inc., priority 1993, dated 1994).

The IC50 is the concentration that inhibits the measured activity by half.

A value given as a limit tells only on which side of the number the result lay.

For `C=C(CCC(=O)C(O)C(OC(=O)/C=C/C(C)CC(C)CC)C(=O)O)C(OC(C)=O)C(C)Cc1ccccc1` (stereo not shown) [Composition A], the IC50 is below 2000 nM.
